In one assay the test system is HCT-116. As to the kind of experiment: Antiproliferative activity against human HCT-116 cells expressing wildtype ATM incubated for 72 hrs by CCK8 assay. As to conditions: HCT-116, 72 h. It is filed as functional, cell-based.
The test system of assay [1] is LoVo. The assay can be described thus: Antiproliferative activity against ATM deficient human LoVo cells incubated for 72 hrs by CCK8 assay. It is filed as functional, cell-based.
The test system of assay [2] is LoVo. As to the kind of experiment: Induction of apoptosis in human LoVo cells assessed as apoptotic rate at 1 uM incubated for 48 hrs by Annexin V-FITC/PI staining based flow cytometric analysis (reference value: 5.32 %). Type of assay: functional.
Assay [3] concerns LoVo. As to the kind of experiment: Synergistic antitumor activity against human LoVo cells xenografted in BALB/c nude mouse assessed as tumor growth inhibition at 12.5 mg/kg, po administered once daily for 15 days in presence of cisplatin relative to control. The settings on record: 360 h, time 15 day, read-out: TGI. Type of assay: functional.
For assay [4], the system named is LoVo. As to the kind of experiment: Cell cycle arrest in human LoVo cells assessed as accumulation of cells at G2/M phase at 1 uM incubated for 72 hrs by PI staining based flow cytometric analysis (reference value: 22.2 %). It is filed as functional.
Assay [5] has as its system LoVo. The assay can be described thus: Cell cycle arrest in human LoVo cells assessed as accumulation of cells at G0/G1 phase at 1 uM incubated for 72 hrs by PI staining based flow cytometric analysis (reference value: 52.3 %). Type of assay: functional.
Assay [6] relates to LoVo. The assay can be described thus: Induction of DNA damage in human LoVo cells assessed as increase in gammaH2AX expression at 1 uM incubated for 72 hrs by DAPI staining based immunofluorescence analysis. It is filed as functional, cell-based.
Assay [7] relates to LoVo. The assay can be described thus: Cell cycle arrest in human LoVo cells assessed as accumulation of cells at S phase at 1 uM incubated for 72 hrs by PI staining based flow cytometric analysis (reference value: 25.5 %). It is filed as functional.
The target of assay [8] is Protein cereblon/Serine/threonine-protein kinase ATR (Homo sapiens, UniProt Q13535+Q96SW2). As to the kind of experiment: PROTAC activity at CRBN/ATR in human LoVo cells assessed as induction of ATR degradation. It is filed as cell-based.
Protein cereblon/Serine/threonine-protein kinase ATR, sequence (Q13535 whole entry, looked up): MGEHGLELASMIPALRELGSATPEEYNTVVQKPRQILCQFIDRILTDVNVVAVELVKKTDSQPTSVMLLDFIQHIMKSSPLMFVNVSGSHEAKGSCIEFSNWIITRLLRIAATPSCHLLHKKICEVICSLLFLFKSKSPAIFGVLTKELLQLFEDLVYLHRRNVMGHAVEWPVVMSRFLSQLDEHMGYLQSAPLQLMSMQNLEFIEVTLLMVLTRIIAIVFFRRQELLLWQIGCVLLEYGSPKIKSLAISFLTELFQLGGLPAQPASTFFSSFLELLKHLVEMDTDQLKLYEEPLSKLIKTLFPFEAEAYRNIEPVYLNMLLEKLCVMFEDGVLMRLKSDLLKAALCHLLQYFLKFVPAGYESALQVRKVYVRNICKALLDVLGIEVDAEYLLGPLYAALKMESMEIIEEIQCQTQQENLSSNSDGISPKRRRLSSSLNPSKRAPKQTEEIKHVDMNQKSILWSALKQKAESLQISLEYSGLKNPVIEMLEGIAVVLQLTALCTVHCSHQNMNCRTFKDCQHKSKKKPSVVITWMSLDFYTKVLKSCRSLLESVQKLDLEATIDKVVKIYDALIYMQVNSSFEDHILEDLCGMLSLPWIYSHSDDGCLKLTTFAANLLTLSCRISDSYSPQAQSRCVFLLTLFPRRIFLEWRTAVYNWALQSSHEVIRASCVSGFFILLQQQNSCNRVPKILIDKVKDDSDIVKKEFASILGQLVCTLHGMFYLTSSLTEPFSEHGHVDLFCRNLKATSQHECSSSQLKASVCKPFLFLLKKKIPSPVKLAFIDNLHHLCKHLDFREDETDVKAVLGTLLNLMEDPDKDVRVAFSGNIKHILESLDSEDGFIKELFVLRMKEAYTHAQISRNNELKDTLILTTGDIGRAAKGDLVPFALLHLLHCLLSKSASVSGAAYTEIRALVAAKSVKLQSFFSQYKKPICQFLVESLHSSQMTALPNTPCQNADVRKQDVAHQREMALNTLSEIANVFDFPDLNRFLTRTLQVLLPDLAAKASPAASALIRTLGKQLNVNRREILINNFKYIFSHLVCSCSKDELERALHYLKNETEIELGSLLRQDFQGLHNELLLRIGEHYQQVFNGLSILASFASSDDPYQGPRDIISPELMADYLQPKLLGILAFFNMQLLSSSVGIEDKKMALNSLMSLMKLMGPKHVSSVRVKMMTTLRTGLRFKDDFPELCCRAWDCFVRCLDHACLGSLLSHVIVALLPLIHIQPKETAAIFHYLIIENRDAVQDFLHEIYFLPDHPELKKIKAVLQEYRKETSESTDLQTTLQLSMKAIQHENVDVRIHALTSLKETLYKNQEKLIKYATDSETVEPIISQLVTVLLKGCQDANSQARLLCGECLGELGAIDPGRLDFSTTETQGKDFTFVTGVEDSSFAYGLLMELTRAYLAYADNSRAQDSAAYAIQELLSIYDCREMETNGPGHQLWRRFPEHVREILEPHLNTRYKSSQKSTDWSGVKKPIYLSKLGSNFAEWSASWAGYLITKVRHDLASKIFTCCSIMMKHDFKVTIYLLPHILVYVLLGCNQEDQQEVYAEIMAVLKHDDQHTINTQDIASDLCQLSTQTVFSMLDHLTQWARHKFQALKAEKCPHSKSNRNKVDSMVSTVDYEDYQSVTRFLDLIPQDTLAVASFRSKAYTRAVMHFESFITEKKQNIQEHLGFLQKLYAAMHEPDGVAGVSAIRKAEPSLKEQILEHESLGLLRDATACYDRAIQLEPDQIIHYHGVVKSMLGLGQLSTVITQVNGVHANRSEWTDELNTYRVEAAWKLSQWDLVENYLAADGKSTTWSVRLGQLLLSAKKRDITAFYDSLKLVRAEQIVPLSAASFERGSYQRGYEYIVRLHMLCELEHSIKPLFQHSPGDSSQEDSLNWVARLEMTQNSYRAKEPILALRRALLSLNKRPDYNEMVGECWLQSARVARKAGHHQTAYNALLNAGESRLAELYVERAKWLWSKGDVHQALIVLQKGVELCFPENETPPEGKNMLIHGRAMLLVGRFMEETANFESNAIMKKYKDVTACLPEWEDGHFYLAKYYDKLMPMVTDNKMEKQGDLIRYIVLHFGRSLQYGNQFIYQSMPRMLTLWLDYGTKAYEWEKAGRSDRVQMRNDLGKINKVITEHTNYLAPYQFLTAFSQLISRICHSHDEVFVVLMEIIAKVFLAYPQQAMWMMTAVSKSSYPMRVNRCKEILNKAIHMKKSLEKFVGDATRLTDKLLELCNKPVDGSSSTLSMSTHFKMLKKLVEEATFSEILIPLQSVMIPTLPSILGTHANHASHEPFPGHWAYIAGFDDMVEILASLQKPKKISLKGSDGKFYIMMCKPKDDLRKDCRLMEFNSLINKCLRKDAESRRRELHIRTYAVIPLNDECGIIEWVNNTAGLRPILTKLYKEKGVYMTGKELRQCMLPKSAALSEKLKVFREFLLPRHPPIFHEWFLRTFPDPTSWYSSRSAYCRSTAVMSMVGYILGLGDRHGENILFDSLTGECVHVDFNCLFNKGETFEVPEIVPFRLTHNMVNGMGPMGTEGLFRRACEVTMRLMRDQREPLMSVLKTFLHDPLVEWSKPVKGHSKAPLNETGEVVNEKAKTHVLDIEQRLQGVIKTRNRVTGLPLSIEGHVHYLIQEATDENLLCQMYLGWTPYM
Protein cereblon/Serine/threonine-protein kinase ATR, sequence (Q96SW2 whole entry, looked up): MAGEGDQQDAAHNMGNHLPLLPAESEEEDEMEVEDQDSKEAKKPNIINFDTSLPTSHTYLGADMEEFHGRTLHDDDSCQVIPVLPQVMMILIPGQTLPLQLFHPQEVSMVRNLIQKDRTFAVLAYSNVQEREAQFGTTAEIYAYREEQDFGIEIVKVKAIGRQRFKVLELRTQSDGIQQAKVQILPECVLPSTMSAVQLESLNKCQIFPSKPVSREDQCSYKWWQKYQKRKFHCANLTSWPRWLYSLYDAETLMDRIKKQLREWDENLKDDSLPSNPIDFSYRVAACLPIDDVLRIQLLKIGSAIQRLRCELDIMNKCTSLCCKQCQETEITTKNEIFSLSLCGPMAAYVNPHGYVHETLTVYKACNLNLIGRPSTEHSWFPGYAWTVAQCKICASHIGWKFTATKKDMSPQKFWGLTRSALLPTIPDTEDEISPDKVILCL
Assay [9] concerns the target Serine/threonine-protein kinase ATR (Homo sapiens, UniProt Q13535). The assay can be described thus: Inhibition of ATR (unknown origin).
The nature of assay [10]: Selectivity ratio for inhibition of PI3K (unknown origin) to inhibition of ATR (unknown origin).
Assay [11] can be described thus: Selectivity ratio for inhibition of ATM (unknown origin) to inhibition of ATR (unknown origin).

Activity calls are given as the source filed them. The calls are words filed in the database; no cut-off is given here.

Serine/threonine-protein kinase ATR, sequence (Q13535 whole entry): as the sequence (Q13535 whole entry, looked up) above

Consider `Nc1cccc2c1C(=O)N(C1CCC(=O)NC1=O)C2=O` (stereo not given) [POMALIDOMIDE], for which the 50% inhibitory concentration (IC50) in the assay on HCT-116 and with LoVo [1] was > 50 µM throughout.

In the case of `Cc1ncsc1-c1ccc(CNC(=O)[C@@H]2C[C@@H](O)CN2C(=O)[C@@H](NC(=O)CCCCCCCn2cc(CCC(=O)N=[S@](C)(=O)C3(c4cc(N5CCOC[C@H]5C)nc(-c5ccnc6[nH]ccc56)n4)CC3)nn2)C(C)(C)C)cc1`, the IC50 in the assay on HCT-116 and in the assay on LoVo [1] was > 50 µM in each case.

Take `C[C@@H]1COCCN1c1cc(C2([S@](C)(=N)=O)CC2)nc(-c2cc[nH]c3nccc2-3)n1` [CERALASERTIB]: the Activity with LoVo [2] was determined as 42%; with LoVo [4], 11.5%; with LoVo [5] it was 71.8%; with LoVo [7] it was 16.7%. The IC50 in the assay with HCT-116 was 3.62 µM; in the assay with LoVo [1], 0.83 µM. Besides, the inhibition in vivo at 12.5 mg/kg in the assay with LoVo [3] is 52.7%. The result in the assay with LoVo [6] was Active.

For `Cc1ncsc1-c1ccc(CNC(=O)[C@@H]2C[C@@H](O)CN2C(=O)[C@@H](NC(=O)CCCCCCCCCCn2cc(CCC(=O)N=[S@](C)(=O)C3(c4cc(N5CCOC[C@H]5C)nc(-c5ccnc6[nH]ccc56)n4)CC3)nn2)C(C)(C)C)cc1`, the IC50 in the assay on HCT-116 and in the assay with LoVo [1] was > 50 µM throughout.

Regarding `CCN1C(=O)CCC(N2C(=O)c3cccc(NC(=O)CCCCCCCCCn4cc(CCC(=O)N=[S@](C)(=O)C5(c6cc(N7CCOC[C@H]7C)nc(-c7ccnc8[nH]ccc78)n6)CC5)nn4)c3C2=O)C1=O` (stereo not given in full), the IC50 with HCT-116 and in the assay on LoVo [1] was > 50 µM throughout. In addition, the outcome in assay [8] was inactive.

With `C[C@@H]1COCCN1c1cc(C2([S@@](C)(=O)=NC(=O)CCc3cn(CCOCCOCC(=O)Nc4cccc5c4C(=O)N(C4CCC(=O)NC4=O)C5=O)nn3)CC2)nc(-c2ccnc3[nH]ccc23)n1` (stereo not given in full), the figures for the half-inhibitory concentration (IC50) in the assay with HCT-116 and in the assay with LoVo [1] were > 50 µM and 26.7 µM, respectively.

As for `C[C@@H]1COCCN1c1cc(C2([S@@](C)(=O)=NC(=O)CCc3cn(CCCCCCCCCC(=O)Nc4cccc5c4C(=O)N(C4CCC(=O)NC4=O)C5=O)nn3)CC2)nc(-c2ccnc3[nH]ccc23)n1` (stereo not given in full), the figures for the IC50 in the assay on HCT-116 and in the assay on LoVo [1] were > 50 µM and 21.2 µM, respectively.

On to `Cc1ncsc1-c1ccc(CNC(=O)[C@@H]2C[C@@H](O)CN2C(=O)[C@@H](NC(=O)CCCCn2cc(CCC(=O)N=[S@](C)(=O)C3(c4cc(N5CCOC[C@H]5C)nc(-c5ccnc6[nH]ccc56)n4)CC3)nn2)C(C)(C)C)cc1`, for which the IC50 with HCT-116 and in the assay on LoVo [1] was > 50 µM each time.

`Nc1nn2cc(F)cnc2c1C(=O)Nc1cncc(F)c1N1CCC(C(=O)N2CCN(C3COC3)CC2)CC1` [M4344] returned an IC50 in assay [9] of 0.00015 µM. Besides, the Selectivity ratio in [10] and in assay [11] was > 50 in each case.

With `C[C@@H]1COCCN1c1cc(C2([S@@](C)(=O)=NC(=O)CCc3cn(CCCCCCCCC(=O)Nc4cccc5c4C(=O)N(C4CCC(=O)NC4=O)C5=O)nn3)CC2)nc(-c2ccnc3[nH]ccc23)n1` (stereo not given in full), the results for the 50% inhibitory concentration (IC50) in the assay on HCT-116 and with LoVo [1] were > 50 µM and 32.4 µM, respectively.

On to `C[C@@H]1COCCN1c1cc(C2([S@@](C)(=O)=NC(=O)CCc3cn(CCCCCC(=O)Nc4cccc5c4C(=O)N(C4CCC(=O)NC4=O)C5=O)nn3)CC2)nc(-c2ccnc3[nH]ccc23)n1` (stereo not given in full), for which the IC50 in the assay on HCT-116 was > 50 µM; with LoVo [1], 23.3 µM.

Regarding `C[C@@H]1COCCN1c1cc(C2([S@@](C)(=O)=NC(=O)CCc3cn(CCCCCCCCCCC(=O)Nc4cccc5c4C(=O)N(C4CCC(=O)NC4=O)C5=O)nn3)CC2)nc(-c2ccnc3[nH]ccc23)n1` (stereo not given in full), the IC50 in the assay on HCT-116 was > 50 µM; in the assay with LoVo [1] it was 16.4 µM.

Regarding `C[C@@H]1COCCN1c1cc(C2([S@@](C)(=O)=NC(=O)CCc3cn(CCCCCCC(=O)Nc4cccc5c4C(=O)N(C4CCC(=O)NC4=O)C5=O)nn3)CC2)nc(-c2ccnc3[nH]ccc23)n1` (stereo not given in full), the IC50 is > 50 µM in the assay on HCT-116 and 20 µM with LoVo [1].

On to `C[C@@H]1COCCN1c1cc(C2([S@@](C)(=O)=NC(=O)CCc3cn(CCOCCOCCOCC(=O)Nc4cccc5c4C(=O)N(C4CCC(=O)NC4=O)C5=O)nn3)CC2)nc(-c2ccnc3[nH]ccc23)n1` (stereo not given in full), for which the IC50 in the assay with HCT-116 and in the assay with LoVo [1] was > 50 µM each time.

For `C[C@@H]1COCCN1c1cc(C2([S@@](C)(=O)=NC(=O)CCc3cn(CCCCC(=O)Nc4cccc5c4C(=O)N(C4CCC(=O)NC4=O)C5=O)nn3)CC2)nc(-c2ccnc3[nH]ccc23)n1` (stereo not given in full), the IC50 in the assay with HCT-116 was > 50 µM; in the assay on LoVo [1] it was 28.4 µM.

As for `Cc1ncsc1-c1ccc(CNC(=O)[C@@H]2C[C@@H](O)CN2C(=O)[C@@H](N)C(C)(C)C)cc1`, the IC50 in the assay on HCT-116 and with LoVo [1] was > 50 µM in each case.

For the origin of these results see ChEMBL document CHEMBL5576037, “Discovery of the first ataxia telangiectasia and Rad3-related (ATR) degraders for cancer treatment” (Eur J Med Chem, 2024).
